Legend:
human NMT = molecular target: T1, human NMT (Homo sapiens, UniProt P30419); assay: NMT enzyme inhibition assay (radiochemical HPLC end-point), human NMT; assay type: biochemical
T1 construct: made in house; host or cells: E. coli
T1 sequence (P30419 1-416 isoform P30419-2): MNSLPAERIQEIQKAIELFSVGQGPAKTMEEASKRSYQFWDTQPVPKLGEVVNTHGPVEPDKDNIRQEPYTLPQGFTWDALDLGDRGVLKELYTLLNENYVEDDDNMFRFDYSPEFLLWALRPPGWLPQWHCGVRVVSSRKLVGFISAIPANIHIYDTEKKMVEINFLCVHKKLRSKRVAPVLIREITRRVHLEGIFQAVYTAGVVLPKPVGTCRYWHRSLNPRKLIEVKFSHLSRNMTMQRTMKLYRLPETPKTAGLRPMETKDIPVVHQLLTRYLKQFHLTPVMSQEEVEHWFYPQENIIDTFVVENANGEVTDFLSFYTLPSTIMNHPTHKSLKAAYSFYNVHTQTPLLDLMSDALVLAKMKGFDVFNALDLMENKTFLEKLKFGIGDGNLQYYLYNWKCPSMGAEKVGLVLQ
Description: Recombinant Candida albicans and human NMTs were expressed and purified from E. coli using previously described protocols. [D. A. Towler et al, Proc. Natl. Acad. Sci. USA, 84, 2707-2712 (1987); R. C. Weigand et al, J. Biol. Chem., 267, 8591-8598 (1992); R. J. Duronio et al, Proc. Natl. Acad. Sci. USA, 89, 4129-4133 (1992)] The ability of compounds to inhibit Candida NMT enzymatic activity was assessed using a radiochemical HPLC end-point assay as described previously for Saccharomyces cerevisiae and human NMTs. [D. Towler et al, Proc. Natl. Acad. Sci. USA, 83, 2812-2816 (1986); W. J. Rocque et al, J. Biol. Chem., 268, 9964-9971 (1991)] The donor substrate [^3H]myristoyl-coenzyme A was enzymatically synthesized from [^3H]myristic acid (50 Ci/mmol, Amersham, Arlington Heights, Ill.) and coenzyme A (Fluka Chemical Corp., Ronkonkoma, N.Y.), and purified as described previously. [W. J. Rocque et al, J. Biol. Chem., 268, 9964-9971 (1991)] The peptide acceptor substrate GNAASARR-NH2 was prepared by solid-phase peptide synthesis using the t-Boc amino acid methodology, followed by HF treatment and reverse-phase HPLC purification. Inhibitor stock solutions were prepared at 22 mM in DMSO; the final concentration of DMSO in each assay was 0.5% (v/v). […] The reaction was quenched after 10 minutes at 24° C. by the addition of ice-cold MeOH, and the reaction products were separated and measured using C4 reverse-phase HPLC (Vydac 214TP10415; Separations Group, Hesperia, Calif.) and in-line scintillation counting using a Radiomatic A250 (Packard Instruments, Downers Grove, Ill.) and Ecolite(+) (ICN Biomedical, Costa Mesa, Calif.) as the scintillant. Selectivity was determined by calculating the ratio of the IC50 against human NMT to the IC50 against C. albicans NMT.

[1] = tested on: C. albicans Arf N-myristoylation; assay: Gel shift assay for degree of N-myristoylation of Arf in C. albicans cultures; assay type: cell-based, Candida albicans; conditions: 200 μM, 24° C., strain MONCA105; for reduction in Arf N-myristoylation: 2 h
Source text: N-myristoylation of C. albicans ADP ribosylation factor (Arf), produces a change in its electrophoretic mobility during SDS-polyacrylamide gel electrophoresis. The acylated species migrates more rapidly than the nonmyristoylated species [J. K. Lodge et al, J. Biol. Chem., 269, 2996-3009 (1994)].
Based on these findings, acylation of C. albicans Arf, measured using this protein gel shift assay, was used to define the effects of peptide analog inhibitors of C. albicans NMT on the efficiency of protein N-myristoylation in cultures of this fungal pathogen.
The assay was performed as follows. A single colony of Candida albicans strain MONCA105 NMT, [R. A Weinberg et al, Mol. Micro., in press, (1995)] was innoculated into YPD medium (YPD=1% yeast extract, 2% peptone, 2% dextrose). Cultures were shaken at 24° C. for 12-16 h. Cells were recovered by centrifugation, washed 3 times with sterile PBS, pH 7.4 and resuspended in YPD at an OD600 of 1.0-1.5. Fifty microliters of a 20 mM stock solution of peptide analog (prepared in sterile deionized H2O) were added to a sterile polypropylene tube containing 4.5 mL of fresh YPD medium. Five hundred microliters of the C. albicans culture was then added to the tubes. Controls consisted of no added peptide analog (i.e. water alone).The tubes were incubated at 24° C. with vigorous shaking for 2 hr or 4 hr. For each experiment, duplicate tubes were assayed for each condition and at each time point. Cells were recovered by centrifugation, resuspended in 200 μL of Lysis Buffer (0.125M Tris-HCl, pH 6.8/4% SDS), and transferred to microfuge tubes containing 200 μL of glass beads (bead diameter=425-600 μm, Sigma).The slurry was vortexed 3 times for 1 min each. Between each cycle of vortexing, the tubes were placed on ice for 1 min. The mixture was then placed in a boiling water bath for 10 min, vortexed once again for 1 min and subsequently spun at 10,000×g for 2 min. The cleared supernatant fraction was removed, spun again at 10,000×g for 5 min and the total protein concentration determined. […]

SMILES	IC50 (human NMT; Table V) [µM]	reduction in Arf N-myristoylation [1]	IC50 (human NMT; Comparator Compound A table) [µM]	reduction of Arf acylation ([1]; 4 h)
Cc1nccn1CCCCc1ccc(CC(=O)N[C@@H](CO)C(=O)N[C@@H](CCCCN)C(=O)N[C@@H](CC2CCCCC2)C(=O)O)cc1 [Example 2, L-Alanine, 3-cyclohexyl-N-[N^2-[N-[[4-[4-(2-Methyl-1H-imidazol-1-yl)butyl]phenyl]acetyl]-L-seryl]-L-lysyl]-, bis-trifluoroacetate]	810	~10%		
Cc1nccn1CCCCc1ccc(CC(=O)N[C@H](CO)C(=O)N[C@H](CCCCN)C(=O)N[C@H](CC2CCCCC2)C(=O)O)cc1 [Comparator Compound A, D-Alanine, 3-cyclohexyl-N-[N^2-[N-[[4-[4-(2-methyl-1H-imidazol-1-yl)butyl]phenyl]acetyl]-D-seryl]-D-lysyl]-, bis-trifluoroacetate]		no detectable reduction	> 1000	no detectable reduction

Reference: patent US6632921B1, “Seryl-lysyl-based peptide and peptidomimetic inhibitors of N-myristoyl transferase as anti-infective agents” (G. D Searle & Co, priority 1995, dated 2003)
